Measured values as given in BindingDB's records for doi:10.3109/14756366.2011.599323 (China Pharmaceutical University, 2012).
Where a SMILES comes first, the peptide text is derived from it.

Columns and labels:
[1] = biological target: Matrix metalloproteinase-9 (Homo sapiens, UniProt P14780); experiment: MMP-9 Activity Assay; details: pH 7.4; 37 °C
Experimental: Recombinant human MMP-9 was expressed in Sf9 insect cells and purified by gelatin-Sepharose affinity chromatography as described previously16,17. It was activated with 0.01 μM of the catalytic domain of MMP-3 (cd-MMP-3, Calbiochem) in assay buffer (100 mM Tris/HCl, pH 7.4, 100 mM NaCl, 10 mM CaCl2 and 0.01% Tween-20) at 92 ng/μl (1 μM) as a stock solution as described8. Hydrolysis of the substrate Mca-Pro-Leu-Gly-Leu-Dpa-Ala-Arg-NH2 (substrate I, R&D Systems Europe Ltd) was monitored by measuring the increase in fluorescence (excitation wavelength = 328 nm, emission wavelength = 392 nm) [Whittaker et al., Chem. Rev., 99:2735-2776]. All assays were performed at 37°C in 100 μl assay buffer. The reaction was started by adding 10 μl gelatinase B stock solution (0.92 ng/μl) to a 100 μl reaction system with a substrate concentration of 10 μM, after which the rate of substrate hydrolysis was monitored.

Stromelysin-1 = Stromelysin-1 (Homo sapiens, UniProt P08254); experiment: MMP-3 Activity Assay; details: pH 7.4; 37 °C
Experimental: The activity of recombinant human MMP-3 (catalytic domain, Calbiochem) was detected with the substrate Mca-Arg-Pro-Lys-Pro-Val-Glu-Nval-Trp-Arg-Lys(Dnp)-NH2 (substrate II, R&D Systems Europe Ltd) (excitation wavelength = 320 nm, emission wavelength = 405 nm). These assays were performed at 37°C in 100 μl assay buffer. The reaction was started by adding 10 μl MMP-3 stock solution (1 ng/μl) to a 100 μl reaction system with a final substrate concentration of 10 μM, after which the rate of substrate hydrolysis was monitored.

Neutrophil collagenase = Neutrophil collagenase (Homo sapiens, UniProt P22894); experiment: MMP-8 Activity Assay; details: pH 7.4; 37 °C
Experimental: Recombinant human MMP-8 was purchased as an active form enzyme (Sino Biological Inc.). The enzyme activity was detected with the same fluorogenic peptidesubstrate as that for MMP-9. All MMP-8 assays were performed at 37°C in 100 μl assay buffer with 20 μl recombinant human MMP-8 (2 ng/μl). The final substrateconcentration was 10 μM.

[2] = biological target: Disintegrin and metalloproteinase domain-containing protein 17 (Homo sapiens, UniProt P78536); experiment: TACE Activity Assay; details: pH 9.0
Experimental: TACE was purchased as an active form enzyme (R&D Systems). Hydrolysis of the TACE-substrate Mca-Pro-Leu-Ala-Gln-Ala-Val-Dpa-Arg-Ser-Ser-Ser-Arg-NH (substrateIII, R&D Systems Europe Ltd) was monitored by measuring the increase in fluorescence (excitation wavelength = 320 nm, emission wavelength = 405 nm). TACEassays were performed at 37°C in 100 μl assay buffer. The reaction was started by adding 4 μl TACE stock solution (1 ng/μl) to a 100 μl reaction system with a final substrate concentration of 10 μM, after which the rate of substrate hydrolysis was monitored.

Sequence of Stromelysin-1 (P08254 whole entry, the tested form may be a part): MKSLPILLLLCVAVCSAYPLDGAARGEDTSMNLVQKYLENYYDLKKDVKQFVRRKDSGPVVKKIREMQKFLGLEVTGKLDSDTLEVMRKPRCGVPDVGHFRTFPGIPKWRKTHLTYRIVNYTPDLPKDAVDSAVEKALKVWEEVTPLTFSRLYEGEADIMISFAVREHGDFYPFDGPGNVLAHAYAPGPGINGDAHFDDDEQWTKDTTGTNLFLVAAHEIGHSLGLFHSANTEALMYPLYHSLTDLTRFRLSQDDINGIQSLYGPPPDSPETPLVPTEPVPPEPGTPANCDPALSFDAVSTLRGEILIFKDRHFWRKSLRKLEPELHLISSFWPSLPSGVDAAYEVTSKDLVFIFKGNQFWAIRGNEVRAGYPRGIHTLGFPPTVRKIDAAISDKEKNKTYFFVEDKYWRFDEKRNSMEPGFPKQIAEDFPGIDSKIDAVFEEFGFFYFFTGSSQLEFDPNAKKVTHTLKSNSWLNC
Sequence of Matrix metalloproteinase-9 (P14780 whole entry, the tested form may be a part): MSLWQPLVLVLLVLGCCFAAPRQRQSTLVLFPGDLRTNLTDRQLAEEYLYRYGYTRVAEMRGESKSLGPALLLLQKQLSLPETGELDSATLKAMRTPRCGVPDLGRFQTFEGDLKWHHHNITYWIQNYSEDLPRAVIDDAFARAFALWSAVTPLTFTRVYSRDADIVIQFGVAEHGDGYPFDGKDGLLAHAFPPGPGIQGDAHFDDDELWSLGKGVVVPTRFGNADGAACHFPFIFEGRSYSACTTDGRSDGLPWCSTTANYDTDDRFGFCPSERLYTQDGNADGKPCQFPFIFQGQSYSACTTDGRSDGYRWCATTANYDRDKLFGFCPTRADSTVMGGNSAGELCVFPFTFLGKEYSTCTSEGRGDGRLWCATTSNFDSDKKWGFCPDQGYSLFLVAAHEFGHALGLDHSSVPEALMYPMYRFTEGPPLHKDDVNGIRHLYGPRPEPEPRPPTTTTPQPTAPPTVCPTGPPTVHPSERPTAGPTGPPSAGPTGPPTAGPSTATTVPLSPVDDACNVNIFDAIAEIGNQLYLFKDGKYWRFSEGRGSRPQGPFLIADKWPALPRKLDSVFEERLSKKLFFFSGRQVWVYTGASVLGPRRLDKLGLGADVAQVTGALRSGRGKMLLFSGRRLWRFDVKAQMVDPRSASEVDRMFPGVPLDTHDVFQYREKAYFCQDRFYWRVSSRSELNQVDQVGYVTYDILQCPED
Sequence of Disintegrin and metalloproteinase domain-containing protein 17 (P78536 whole entry, the tested form may be a part): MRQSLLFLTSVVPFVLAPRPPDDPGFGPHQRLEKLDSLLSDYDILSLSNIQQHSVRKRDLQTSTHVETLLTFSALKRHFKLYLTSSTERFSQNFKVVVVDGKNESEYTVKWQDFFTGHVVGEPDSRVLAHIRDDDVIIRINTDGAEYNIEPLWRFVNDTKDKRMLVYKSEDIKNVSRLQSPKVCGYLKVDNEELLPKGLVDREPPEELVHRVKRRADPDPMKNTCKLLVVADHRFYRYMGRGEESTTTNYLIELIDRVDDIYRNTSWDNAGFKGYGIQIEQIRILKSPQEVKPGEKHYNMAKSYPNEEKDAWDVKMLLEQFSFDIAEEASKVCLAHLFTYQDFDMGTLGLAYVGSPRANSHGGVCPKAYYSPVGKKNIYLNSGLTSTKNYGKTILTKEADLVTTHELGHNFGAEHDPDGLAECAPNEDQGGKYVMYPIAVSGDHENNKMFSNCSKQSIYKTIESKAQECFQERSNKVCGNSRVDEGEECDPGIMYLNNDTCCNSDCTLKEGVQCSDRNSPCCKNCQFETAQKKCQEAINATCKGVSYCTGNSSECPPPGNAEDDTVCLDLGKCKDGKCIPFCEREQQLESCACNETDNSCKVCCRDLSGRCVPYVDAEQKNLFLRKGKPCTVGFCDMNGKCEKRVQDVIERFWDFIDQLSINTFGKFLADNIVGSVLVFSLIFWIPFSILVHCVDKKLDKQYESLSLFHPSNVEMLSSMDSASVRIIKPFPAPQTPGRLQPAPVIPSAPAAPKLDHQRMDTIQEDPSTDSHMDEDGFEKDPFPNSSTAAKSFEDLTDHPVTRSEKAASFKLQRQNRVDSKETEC
Sequence of Neutrophil collagenase (P22894 whole entry): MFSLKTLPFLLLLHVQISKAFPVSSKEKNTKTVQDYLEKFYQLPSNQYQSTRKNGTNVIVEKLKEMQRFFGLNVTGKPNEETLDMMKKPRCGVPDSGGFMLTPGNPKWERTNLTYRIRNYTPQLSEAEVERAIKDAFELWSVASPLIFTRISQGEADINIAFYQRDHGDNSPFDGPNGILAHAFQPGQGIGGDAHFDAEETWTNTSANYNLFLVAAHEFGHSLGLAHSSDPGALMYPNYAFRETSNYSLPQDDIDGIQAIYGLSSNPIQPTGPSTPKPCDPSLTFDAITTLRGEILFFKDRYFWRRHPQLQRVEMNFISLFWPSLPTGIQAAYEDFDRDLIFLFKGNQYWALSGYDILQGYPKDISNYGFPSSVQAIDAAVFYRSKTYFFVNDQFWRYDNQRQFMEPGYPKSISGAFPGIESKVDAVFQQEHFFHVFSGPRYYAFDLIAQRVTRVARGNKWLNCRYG

Compound	IC50 [1] [nM]	IC50 (Stromelysin-1) [nM]	IC50 (Neutrophil collagenase) [nM]	IC50 [2] [nM]
N=C(N)NCCC[C@H](N)C(=O)N[C@@H](CS)C(=O)N[C@H](Cc1ccc(-c2ccccc2)cc1)C(=O)N[C@H](CCCNC(=N)N)C(=O)O [Arg-Cys-(D-Bip)-(D-Arg)] (HELM PEPTIDE1{R.C.[O=C([C@@H](Cc1ccc(-c2ccccc2)cc1)N[*:1])[*:2]].[dR]}$$$$V2.0)	750	19500	2300	20000
N=C(N)NCCC[C@H](NC(=O)[C@H](Cc1ccc(-c2ccccc2)cc1)NC(=O)[C@@H](CS)NC(=O)[C@@H](N)CCCNC(=N)N)C(=O)O [Arg-(D-Cys)-Bip-Arg] (HELM PEPTIDE1{R.[dC].[O=C([C@H](Cc1ccc(-c2ccccc2)cc1)N[*:1])[*:2]].R}$$$$V2.0)	900	22500	900	2500
